Measured values taken from US10975352B2, “Methods of enhancing cell survival of stem cells” (The Scripps Research Institute, priority 2008, dated 2021).

Assays:
E-cadherin [1] = test: Endocytosis assay; assay type: cell-based, human
Method: hESCs were incubated with 1.5 mg/ml sulfosuccinimidyl 2-(biotinamido) ethyl-dithioproprionate (sulfo-NHS-SS-biotin) (Pierce Chemical Co.) on ice, followed by washing and quenching. Endocytosis of E-cadherin was initiated by Ca^2+ depletion and 37° C. incubation. Cells were then incubated in two 20-min washes of glutathione solution (60 mM glutathione, 0.83 M NaCl, with 0.83 M NaOH and 1% BSA added before use) at 0° C. which removed all cell surface biotin groups. Remaining biotinylated proteins were sequestered inside cells by endocytosis and were therefore protected from glutathione stripping. Biotinylated proteins were recovered on streptavidin beads and analyzed by SDS-PAGE. E-Cadherins were detected by immunoblotting. Total level of surface E-cadherin before endocytosis was used as reference.

stem cells = test: Survival and anti-differentiation of stem cells ex vivo; assay type: cell-based; details: human and mouse embryonic, neural, skin, mesenchymal, hematopoietic, stromal and epithelial stem cells; contact immediately after isolation
From the text: In some embodiments, the invention provides methods of promoting survival and anti-differentiation in stem cells ex-vivo.

hESCs [2] = test: Cell death analysis of dissociated hESCs in suspension culture; assay type: cell-based, human
From the text: hESCs are known to be difficult in forming embryoid bodies (EBs) in suspension culture after single cell dissociation due to extensive cell death. Thus, we also tested whether Tzv or Ptn could promote survival of dissociated hESCs in suspension. […] Because cell aggregation is most often mediated through cell-cell adhesions and E-cadherin is the primary cell-cell adhesion molecule, as well as highly expressed in hESCs (Eastham, A. M. et al., Cancer Res 67 (23): 11254-11262 (2007)), we tested the effect of a specific E-cadherin blocking antibody on multicellular aggregate formation.
The hESCs under different treatments were dissociated by trypsin and fixed by 4% paraformaldehyde. And the staining was carried out according to the manufacturer's instructions (MBL Laboratories, Watertown, Mass.). After staining, samples were analysed by flow cytometry using a FACS Calibur flow cytometer (BD).

hESCs [3] = test: Cell adhesion assay; assay type: cell-based, human
Method: Cell adhesion assays were performed in 96-well microtiter plates coated with Matrigel. After trypsin, hESCs were resuspended in the chemically-defined media containing the desired compounds. Cells were then added to the microtiter wells and incubated for 3 h at 37° C. Unbound and loosely bound cells were removed by shaking and washing, and the remaining cells were then fixed immediately. The wells were washed 3 times with 200 μl of H2O, and attached cells were stained with Crystal Violet (Sigma). The absorbance of each well at 570 nm was then measured. For experiments with blocking antibodies, cells were pre-incubated with antibodies on ice for 30 min, and adhesion assays were performed in the presence of antibodies. Each sample was assayed independently for three times.

hESCs [4] = test: ALP positive colony formation / low-density survival assay of dissociated hESCs on Matrigel; assay type: cell-based, human; details: adherent culture (e.g. Matrigel-coated plate)
Method: Human ESC lines H1, HUES7 and HUES9 were cultured on irradiated MEF feeder cells in DMEM-F12 supplemented with 2 mM L-glutamine, lx nonessential amino acids, 20% serum replacement (Invitrogen) and 10 ng/ml basic Fibroblast growth factor (Invitrogen). Chemically-defined and feeder-free hESC culture was described previously (Yao, S. et al., Proc Natl Acad Sci USA 103 (18):6907-6912 (2006)). Briefly, hESCs were grown on Matrigel-coated tissue culture plates in N2B27-CDM (DMEM-F12 supplemented with 1×N2 supplements, lx B27 supplements, 2 mM L-glutamine, 0.11 mM 2-mercaptoethanol, lx nonessential amino acids, and 0.5 mg/ml BSA (fraction V)) and 20 ng/ml bFGF. Human ESCs were passaged every 5-6 days with 0.05% trypsin.
For clonal survival assays, single hESCs were diluted to clonal density and plated onto 96-well Matrigel-coated plate. For low-density survival assays, 500 cells were plated onto 96-well Matrigel-coated plate. To visualize hESC colonies, cultures were fixed in 4% paraformaldehyde in PBS for 5 min, washed once in PBS, then stained for alkaline phosphatase activity as described in manufacturer's instructions. ALP positive colonies were counted on an inverted microscope.
ALP detection kit and integrin antibodies were from Chemicon. AG825 (Erb2 inhibitor), AG1478 (EGFR inhibitor), PPP (IGFR1 inhibitor) were purchased from Calbiochem. Antibodies raised against the intracytoplasmic tail of E-cadherins (Transduction Laboratories, Lexington, Ky.) were used for immunoprecipitation. The antibody TS2/16 was from Pierce. Antibodies to the extracellular domain of E-cadherin molecule were from Zymed (Carlsbad). Antibodies against extracellular signal-regulated kinase/MAPK, EGFR1, ERB2, GADPH and phosphorylated form of AKT were from Cell Signaling. Mouse monoclonal anti-phosphotyrosine (4G-10 clone) was from Upstate Biotechnology. Ptn and Tzv were added to culture medium at 2 μM. […]

E-cadherin [5] = test: E-cadherin expression in hESCs after trypsin dissociation (Western blot, flow cytometry, RT-PCR); assay type: cell-based, human
From the text: We then examined E-cadherin expression in hESCs after trypsin dissociation. […] This observation was consistent with the report that the extracellular region of E-cadherin has an endoproteolytic cleavage site near the transmembrane domain (Damsky, C. H. et al., Cell 34 (2):455-466 (1983)). […] Therefore, Tzv is likely to affect cell adhesion by modulating cell surface level of E-cadherins. […] It is likely that Tzv exerts its effect through stabilization of E-cadherin on the cell surface.
To assess the expression of E-cadherin, activated integrin and SSEA4, dissociated cells (3×10^5) were washed with PBS and resuspended in PBS containing 2% goat serum. Cells were then incubated with the appropriate antibody for 1 h at 4° C., washed with the blocking solution, and labeled with FITC-conjugated secondary antibody for 30 min at 4° C. Cells were then washed and analyzed on a FACS Calibur flow cytometer.

[6] = system: epithelial to mesenchymal transition/EMT; test: Induction of MET / inhibition of EMT; assay type: cell-based
hESCs [7] = test: Karyotyping (G-banding) of long-term expanded hESCs; assay type: cell-based, human; details: more than 20 generations; chemically-defined medium
Method: Teratoma formation experiments were performed by injecting 3-5 million hESCs (maintained in the presence of compounds Tvz or Ptn) under the kidney capsule of nude mice. After 4-5 weeks, all mice developed teratomas, which were removed and then immunohistologically analyzed by The Scripps Research Institute Research Histology Service and Animal Resources. Compounds treated cells were karyotyped by standard G-banding at the Children's Hospital Oakland, Cytogenetics Laboratory. No chromosomal abnormality was found in the 10 randomly picked nuclei.

With O=C(NCc1ccccc1)c1csc(Nc2ccncn2)n1 [Tzv, N-benzyl-2-(pyrimidin-4-ylamino)thiazole-4-carboxamide] as the compound, how does the “internalization of E-cadherins” value (E-cadherin [1]) read?
Its value is “significantly blocked”.

And the “survival and anti-differentiation of stem cells” value (stem cells)?
Its value is “effective in promoting survival and anti-differentiation”.

What about the “survival of dissociated hESCs in suspension culture” value (hESCs [2]) of the same compound?
Its value is “greatly improved survival”.

What about the “adhesion of dissociated hESCs to Matrigel or laminin” value (hESCs [3]) of the same compound?
The value was “dramatically increased adhesion”.

What about the “adhesion of hESCs to gelatin or poly-lysine” value (hESCs [3]) of the same compound?
The value was “not affected”.

What about the “survival of dissociated hESCs in adherent culture” value (hESCs [4]) of the same compound?
The value was “greatly improved survival”.

What about the “cell surface E-cadherins” value (E-cadherin [5]; flow cytometry) of the same compound?
The value was “significantly increased”.

And the “E-cadherin transcripts vs mock controls” value (E-cadherin [5]; semiquantitative RT-PCR)?
The value was “comparable amounts”.

What about the “full-length E-cadherin expression after trypsin dissociation” value (E-cadherin [5]; time-course Western blot) of the same compound?
The value was “significantly increased”.

And the “MET induction and EMT inhibition” value [6]?
The value was “can induce MET (the reverse of EMT) and inhibit EMT”.

What about the “karyotype of hESCs serially passaged in compound-containing medium” value (hESCs [7]) of the same compound?
The value was “normal karyotype”.
